Reference: article PMC8011576 (Nature biomedical engineering, 2020)
Entries after “also recorded” stand apart in the source; their conditions may differ. Like-named read-outs stand apart in the source and are kept apart here.

Experiments:
[1] = system: OCT2; test: Western blot of OCT2 in Kidney Chip; assay type: cell-based, human; conditions: cisplatin exposure, Western blot vs controls
[2] = system: Gut Chip; conditions: nicotine in epithelial lumen
[3] = 396±16 μM nicotine infused into Gut Chip lumen for 84 hrs, MS
[4] = system: CYP3A4; conditions: nicotine exposure, linked chips
[5] = rodent in vivo; ref Yamazaki et al [35]; cited from earlier work
[6] = system: Liver Chip; test: Albumin production in Liver Chip; assay type: cell-based, human; conditions: nicotine exposure, linked chips
[7] = system: intestinal epithelial cells and endothelial cells in Transwell inserts; conditions: nicotine, same intestinal epithelial and endothelial cells
[8] = system: first pass human Organ Chips; conditions: nicotine exposure, linked Gut, Liver, Kidney Chips
[9] = cited from earlier work
[10] = Human clinical nicotine PK; assay type: in vivo; conditions: blood, oral, 16 μM
[11] = human clinical data, ref Digard et al. [28]

Structure (SMILES) | OCT2 expression in the Kidney Chip [1] | intestinal barrier function of the Gut Chip, inulin tracer [2] | intestinal barrier function of the Gut Chip, Cascade Blue tracer ([2]; P < 0.03) | maximum level measured in the AV Reservoir [3] [µM] | CYP3A4 activity in the Gut Chip [4] | Kidney Renal Clearance, CLR [5] [ml/min/kg.BW] | Liver Intrinsic Clearance, CLint [5] [ml/min/kg.BW] | albumin production in the Liver Chip [6] | barrier change by TEER in static Transwell inserts [7] | toxicity (LDH release) in first pass human Organ Chips [8] | unbound in vivo ([9]; clinical studies) [%] | Liver Intrinsic Clearance, CLint [9, 11] [ml/min/kg.BW] | Liver Secondary Intrinsic Clearance, CLint, sec [9, 11] [ml/min/kq.BW] | half-life [10] [min]
N.N.[Cl][Pt][Cl] [Cisplatin, cisplatin] | increased; also recorded: upregulation | – | – | – | – | – | – | – | – | – | – | – | – | –
CN1CCC[C@H]1c1cccnc1 [Nicotine, nicotine] | – | could not detect any effect | significantly increased | 0.8 ± 0.08 | remained unchanged | 5.5 | 300 | remained unchanged | did not detect a barrier change | did not detect toxicity | 40 | 12.5 | 0.74 | 10.6
